According to ChEMBL document CHEMBL1201862, “PubChem BioAssay data set” (2004):
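Grown in 96-well plates, cells were treated for 48 hours with each compound at five concentrations. Insufficient inhibition: endpoint recorded as highest concentration tested. GI50 marks 50% less growth.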 The source made the active and inactive calls. No stated cut-off is given here; in the data, active = GI50 up to about 1.1 µM and inactive = higher.

Assays:
Test in all cases: NCI-60 cell line screen, 48 h
CCRF-CEM = tested on: CCRF-CEM
SK-MEL-5 = tested on: SK-MEL-5
NCI-H23 = tested on: NCI-H23
SK-MEL-2 = tested on: SK-MEL-2
SR = tested on: SR
TK-10 = tested on: TK-10
MOLT-4 = tested on: MOLT-4
DLD-1 = tested on: DLD-1
OVCAR-5 = tested on: OVCAR-5
M19-MEL = tested on: M19-MEL
DMS-114 = tested on: DMS-114
HL-60 = tested on: HL-60
K562 = tested on: K562
CAKI-1 = tested on: CAKI-1
SF-539 = tested on: SF-539
NCI-H226 = tested on: NCI-H226
ACHN = tested on: ACHN
786-0 = tested on: 786-0

Measured: GI50

O=C1Sc2ccccc2C(=O)N2CCSC12 (stereo not drawn)
inactive: CCRF-CEM > 100 µM | SK-MEL-5 > 100 µM | NCI-H23 > 100 µM | SK-MEL-2 > 100 µM | SR > 100 µM | TK-10 > 100 µM | MOLT-4 > 100 µM | DLD-1 > 100 µM | OVCAR-5 > 100 µM | M19-MEL > 100 µM | DMS-114 > 100 µM | HL-60 82.6 µM | K562 > 100 µM

O=C(c1ccccc1O)c1cc(-c2ncc3c(=O)c4ccccc4oc3n2)c(-c2ccccc2O)[nH]c1=O
inactive: CCRF-CEM 26 µM | SK-MEL-5 12 µM | NCI-H23 19.7 µM | SK-MEL-2 22.1 µM | MOLT-4 18.1 µM | DLD-1 24.4 µM | CAKI-1 8.02 µM | OVCAR-5 24 µM | M19-MEL 25.5 µM | SF-539 1.47 µM | NCI-H226 15 µM | DMS-114 28.8 µM | HL-60 24.9 µM | K562 19.7 µM

NCc1ccccc1C1CSCSC1
inactive: CCRF-CEM > 100 µM | SK-MEL-5 > 100 µM | NCI-H23 > 100 µM | SK-MEL-2 > 100 µM | TK-10 > 100 µM | MOLT-4 > 100 µM | DLD-1 > 100 µM | M19-MEL > 100 µM | SF-539 > 100 µM | NCI-H226 > 100 µM | ACHN > 100 µM | DMS-114 > 100 µM | HL-60 > 100 µM | K562 > 100 µM

COC(=O)C(C/C=C(\C)c1ccccc1)C(C)=O (stereo not drawn)
inactive: CCRF-CEM 40.9 µM | SK-MEL-5 59.6 µM | NCI-H23 90.6 µM | SK-MEL-2 52.7 µM | MOLT-4 16.4 µM | DLD-1 89.5 µM | OVCAR-5 > 100 µM | M19-MEL 59.8 µM | SF-539 > 100 µM | NCI-H226 > 72.6 µM | DMS-114 34.9 µM | HL-60 21.4 µM | K562 44.9 µM

Cc1ccc(NC(=O)C2C(=O)N(c3ccc(C)c(C)c3)C(=O)/C2=N\NC(N)=O)cc1C (stereo not drawn)
inactive: CCRF-CEM 73.8 µM | SK-MEL-5 > 100 µM | NCI-H23 42.8 µM | SK-MEL-2 96.4 µM | TK-10 > 100 µM | MOLT-4 88.9 µM | DLD-1 > 100 µM | CAKI-1 > 100 µM | OVCAR-5 > 100 µM | M19-MEL > 100 µM | SF-539 > 100 µM | 786-0 > 100 µM | NCI-H226 > 100 µM | ACHN > 100 µM | DMS-114 56.9 µM | HL-60 81.5 µM | K562 52.7 µM

O=C(CC1(O)C(=O)Nc2ccccc21)c1ccc2ccccc2c1 (stereo not drawn)
inactive: SK-MEL-5 > 100 µM | NCI-H23 > 100 µM | SK-MEL-2 > 100 µM | TK-10 > 100 µM | MOLT-4 > 100 µM | DLD-1 > 100 µM | CAKI-1 > 100 µM | OVCAR-5 > 100 µM | M19-MEL > 100 µM | SF-539 > 100 µM | 786-0 > 100 µM | NCI-H226 29.2 µM | ACHN > 100 µM | DMS-114 > 100 µM | HL-60 > 100 µM | K562 > 100 µM

O=c1c2cc([N+](=O)[O-])ccc2sc2ccsc12
inactive: CCRF-CEM > 100 µM | SK-MEL-5 > 100 µM | NCI-H23 > 100 µM | SK-MEL-2 > 100 µM | MOLT-4 > 100 µM | DLD-1 > 100 µM | OVCAR-5 > 100 µM | M19-MEL > 100 µM | SF-539 > 100 µM | 786-0 > 100 µM | NCI-H226 > 100 µM | ACHN > 100 µM | DMS-114 > 100 µM | HL-60 > 100 µM | K562 > 100 µM

COC(=O)[C@]1(c2ccc(N(C)C)cc2OC)C[C@@H]2CCCN(CCc3c1[nH]c1ccccc31)C2
inactive: CCRF-CEM 25 µM | SK-MEL-5 17.2 µM | NCI-H23 18.9 µM | SK-MEL-2 20.3 µM | MOLT-4 31 µM | DLD-1 27.2 µM | CAKI-1 54.1 µM | OVCAR-5 > 60.4 µM | M19-MEL 16.4 µM | SF-539 20.5 µM | NCI-H226 17.4 µM | DMS-114 16.6 µM | HL-60 11.7 µM | K562 17.3 µM

Cc1cccc(C)c1NC(=O)CCc1nnc(S)[nH]1
inactive: CCRF-CEM > 100 µM | NCI-H23 > 100 µM | SK-MEL-2 > 100 µM | TK-10 > 100 µM | MOLT-4 > 100 µM | DLD-1 > 100 µM | CAKI-1 > 100 µM | OVCAR-5 > 100 µM | M19-MEL > 100 µM | SF-539 > 100 µM | 786-0 > 100 µM | NCI-H226 > 100 µM | ACHN > 100 µM | DMS-114 > 100 µM | HL-60 > 100 µM | K562 > 100 µM

CCCCCCCCOCC(O)COC(=O)CCCCCCC (stereo not drawn)
inactive: CCRF-CEM 12.1 µM | SK-MEL-5 > 100 µM | NCI-H23 53.6 µM | SR 17.4 µM | TK-10 > 100 µM | MOLT-4 32.7 µM | DLD-1 > 100 µM | CAKI-1 > 100 µM | OVCAR-5 > 100 µM | M19-MEL 70.8 µM | 786-0 > 100 µM | NCI-H226 > 100 µM | ACHN > 100 µM | DMS-114 > 100 µM | HL-60 32.4 µM | K562 31.2 µM

O=C1c2ccccc2C2(O)NC(=S)N(c3ccccc3)C12O (stereo not drawn)
inactive: CCRF-CEM > 100 µM | NCI-H23 > 100 µM | SK-MEL-2 > 100 µM | SR > 100 µM | TK-10 > 100 µM | MOLT-4 > 100 µM | DLD-1 > 100 µM | CAKI-1 > 100 µM | OVCAR-5 > 100 µM | M19-MEL > 100 µM | SF-539 > 100 µM | 786-0 > 100 µM | DMS-114 > 100 µM | HL-60 > 100 µM | K562 > 100 µM

Cc1nc(O)nc2c1C(NCCCN(C)C)c1cc(Cl)ccc1N2 (stereo not drawn)
inactive: CCRF-CEM 15.1 µM | NCI-H23 17.5 µM | SK-MEL-2 17.4 µM | SR 4.81 µM | TK-10 16.8 µM | MOLT-4 19.8 µM | DLD-1 17.8 µM | M19-MEL 3.91 µM | SF-539 13.5 µM | 786-0 14.6 µM | NCI-H226 16.6 µM | ACHN 16.6 µM | DMS-114 14.7 µM | HL-60 14 µM | K562 8.61 µM

O=C(Nc1cccc(O)c1)C(=O)C1C(=O)NC(=S)NC1=O
inactive: CCRF-CEM > 100 µM | SK-MEL-5 > 100 µM | NCI-H23 > 100 µM | SR > 100 µM | MOLT-4 > 100 µM | DLD-1 > 100 µM | CAKI-1 > 100 µM | M19-MEL > 100 µM | SF-539 > 100 µM | 786-0 > 100 µM | NCI-H226 > 100 µM | ACHN > 100 µM | DMS-114 > 100 µM | HL-60 > 100 µM | K562 > 100 µM
